US20200231638A1, “STABILIZED ANTI-MICROBIAL PEPTIDES” (priority 2015, published 2020)
Bridge positions count the residues as written; N and C are the ends. Square brackets hold non-standard residues; d marks the D form. Peptide text beside a SMILES is read from it. S5 = C=CCCC[C@](C)(N)C(=O)O; Nle = CCCC[C@H](N)C(=O)O

Experiments:
E. coli = assay type: cell-based, Escherichia coli
Method: (§1) Antimicrobial Activity Assay:
(§2) The following microbroth dilution protocol was adapted to determine the minimum inhibitory concentration (MIC) of each peptide. First, Mueller-Hinton broth (MHB) was passed through an anion exchange column to remove polyanionic species and generate refined MHB. […] Briefly, bacterial cells was grown overnight in refined MHB at 37° C. and then diluted and allowed to grow again for several hours. Serial dilutions of peptide stocks in water (10 μl) were prepared using clear round-bottom polypropylene 96-well plates. Then 90 μl of bacteria in refined MHB was added to give a final inoculum of 5×10^5 CFU/ml. The plates were then covered with porous tape to reduce evaporation, and incubated for 20-24 hours at 37° C. The MIC is the minimum peptide concentration at which no visible growth was observed.

human red blood cells = assay type: cell-based; details: red cells of human, 1 h, 25
Method: FIG. 5 is a series of line graphs depicting the hemolytic activity of magainin II and stapled analogues. Peptides were incubated with 1% (v/v) human red blood cells in phosphate-buffered solution for 1 hour at 37° C. and then the supernatant was isolated and the amount of hemoglobin released was measured at 540 nm. % hemolysis was calculated relative to an untreated control.
Hemolytic Activity Assay:
For the determination of hemolytic activity, human blood samples were centrifuged to isolate red blood cells (RBCs), which are then washed and suspended in phosphate-buffered saline to yield a 1% (v/v) suspension. The suspension was then added to serial dilutions of peptide stocks in water in clear round-bottom polypropylene 96-well plates and the plates were incubated for 1 hour at 37° C. After incubation, the plates were centrifuged and the supernatant was isolated to determine the amount of hemoglobin released using a spectrophotometer (570 nm), according to the equation: % Hemolysis=(Treated Absorbance−Untreated Control Absorbance)/(1% Triton-X100 Treated Absorbance−Untreated Control Absorbance). The minimum hemolytic concentration (MHC) is the peptide concentration at which there is less than 1% hemoglobin release.

S. aureus = assay type: cell-based, Staphylococcus aureus
Method: as §1, §2

B. cereus = assay type: cell-based, Bacillus cereus
Method: as §1, §2

P. aeruginosa = assay type: cell-based, Pseudomonas aeruginosa
Method: as §1, §2

Compound	MIC E. coli (E. coli) [µg/mL]	MIC S. aureus (S. aureus) [µg/mL]	MIC B. cereus (B. cereus) [µg/mL]	MIC P. aeruginosa (P. aeruginosa) [µg/mL]	% Hemolysis at 25 μg/ml (human red blood cells) [%]
CCCC[C@H](NC(=O)[C@@H](NC(=O)[C@H](CCC(=O)O)NC(=O)[C@]1(C)CCCC=CCCC[C@](C)(NC(=O)CNC(=O)[C@H](Cc2ccccc2)NC(=O)[C@H](CCCCN)NC(=O)[C@H](CCCCN)NC(=O)[C@H](C)NC(=O)[C@H](CO)NC(=O)[C@H](Cc2c[nH]cn2)NC(=O)[C@H](CC(C)C)NC(=O)[C@H](Cc2ccccc2)NC(=O)[C@H](CCCCN)NC(=O)CNC(=O)[C@@H](NC(=O)CN)[C@@H](C)CC)C(=O)N[C@@H](C)C(=O)N[C@@H](Cc2ccccc2)C(=O)N[C@@H](C(C)C)C(=O)N1)[C@@H](C)CC)C(=O)N[C@@H](CC(N)=O)C(=O)N[C@@H](CO)C(N)=O [Mag(i + 4)13] (H-GIGKFLHSAKKFG[S5]AFV[S5]EI[Nle]NS-NH2; staple 14-18)	3.1	6.2	3.1	6.2	59.7
CCCC[C@H](NC(=O)[C@@H](NC(=O)[C@H](CCC(=O)O)NC(=O)CNC(=O)[C@]1(C)CCCC=CCCC[C@](C)(NC(=O)[C@H](Cc2ccccc2)NC(=O)[C@H](CCCCN)NC(=O)[C@H](CCCCN)NC(=O)[C@H](C)NC(=O)[C@H](CO)NC(=O)[C@H](Cc2c[nH]cn2)NC(=O)[C@H](CC(C)C)NC(=O)[C@H](Cc2ccccc2)NC(=O)[C@H](CCCCN)NC(=O)CNC(=O)[C@@H](NC(=O)CN)[C@@H](C)CC)C(=O)N[C@@H](CCCCN)C(=O)N[C@@H](C)C(=O)N[C@@H](Cc2ccccc2)C(=O)N1)[C@@H](C)CC)C(=O)N[C@@H](CC(N)=O)C(=O)N[C@@H](CO)C(N)=O [Mag(i + 4)12] (H-GIGKFLHSAKKF[S5]KAF[S5]GEI[Nle]NS-NH2; staple 13-17)	3.1	6.2	3.1	3.1	76.8
CCCC[C@H](NC(=O)[C@@H](NC(=O)[C@H](CCC(=O)O)NC(=O)CNC(=O)[C@@H](NC(=O)[C@H](Cc1ccccc1)NC(=O)[C@H](C)NC(=O)[C@H](CCCCN)NC(=O)CNC(=O)[C@H](Cc1ccccc1)NC(=O)[C@H](CCCCN)NC(=O)[C@H](CCCCN)NC(=O)[C@]1(C)CCCC=CCCC[C@](C)(NC(=O)[C@H](CCCCN)NC(=O)CNC(=O)[C@@H](NC(=O)CN)[C@@H](C)CC)C(=O)N[C@@H](CC(C)C)C(=O)N[C@@H](Cc2c[nH]cn2)C(=O)N[C@@H](CO)C(=O)N1)C(C)C)[C@@H](C)CC)C(=O)N[C@@H](CC(N)=O)C(=O)N[C@@H](CO)C(N)=O [Mag(i + 4)4] (H-GIGK[S5]LHS[S5]KKFGKAFVGEI[Nle]NS-NH2; staple 5-9)	3.1	25	6.2	12.5	17.8
CCCC[C@@H]1NC(=O)[C@H]([C@@H](C)CC)NC(=O)[C@H](CCC(=O)O)NC(=O)[C@@](C)(NC(=O)[C@@H](NC(=O)[C@H](Cc2ccccc2)NC(=O)[C@H](C)NC(=O)[C@H](CCCCN)NC(=O)CNC(=O)[C@H](Cc2ccccc2)NC(=O)[C@H](CCCCN)NC(=O)[C@H](CCCCN)NC(=O)[C@H](C)NC(=O)[C@H](CO)NC(=O)[C@H](Cc2c[nH]cn2)NC(=O)[C@H](CC(C)C)NC(=O)[C@H](Cc2ccccc2)NC(=O)[C@H](CCCCN)NC(=O)CNC(=O)[C@@H](NC(=O)CN)[C@@H](C)CC)C(C)C)CCCC=CCCC[C@@](C)(C(=O)N[C@@H](CO)C(N)=O)NC1=O [Mag(i + 4)17] (H-GIGKFLHSAKKFGKAFV[S5]EI[Nle][S5]S-NH2; staple 18-22)	1.6	3.1	1.6	6.2	56.0
CCCC[C@H](NC(=O)[C@]1(C)CCCC=CCCC[C@](C)(NC(=O)[C@H](C)NC(=O)[C@H](CCCCN)NC(=O)CNC(=O)[C@H](Cc2ccccc2)NC(=O)[C@H](CCCCN)NC(=O)[C@H](CCCCN)NC(=O)[C@H](Cc2c[nH]cn2)NC(=O)[C@H](CO)NC(=O)[C@]2(C)CCCC=CCCC[C@](C)(NC(=O)[C@H](CCCCN)NC(=O)CN)C(=O)N[C@@H](CCCCN)C(=O)N[C@@H](Cc3ccccc3)C(=O)N[C@@H](CC(C)C)C(=O)N2)C(=O)N[C@@H](C(C)C)C(=O)N[C@@H](Cc2c[nH]cn2)C(=O)N[C@@H](CCC(=O)O)C(=O)N1)C(=O)N[C@@H](CCC(=O)O)C(=O)N[C@@H](CO)C(N)=O [Mag(i + 4)2, 15(I2X, A9H, G18H, N21E)] (H-GK[S5]KFL[S5]SHKKFGKA[S5]VHE[S5][Nle]ES-NH2; staple 3-7, 16-20)	3.1	25	6.2	6.2	4.0

Continued, in another order:

MIC E. coli (E. coli) [µg/mL]	MIC S. aureus (S. aureus) [µg/mL]	MIC B. cereus (B. cereus) [µg/mL]	MIC P. aeruginosa (P. aeruginosa) [µg/mL]	Compound	% Hemolysis at 25 μg/ml (human red blood cells) [%]
25	>50	>50	>50	CCCC[C@H](NC(=O)[C@]1(C)CCCC=CCCC[C@](C)(NC(=O)[C@H](C)NC(=O)[C@H](CCCCN)NC(=O)[C@H](CCC(=O)O)NC(=O)[C@H](Cc2ccccc2)NC(=O)[C@H](CCCCN)NC(=O)[C@H](CCCCN)NC(=O)[C@H](C)NC(=O)[C@H](CO)NC(=O)[C@H](Cc2c[nH]cn2)NC(=O)[C@H](CC(C)C)NC(=O)[C@H](Cc2ccccc2)NC(=O)[C@H](CCCCN)NC(=O)CNC(=O)[C@@H](NC(=O)CN)[C@@H](C)CC)C(=O)N[C@@H](C(C)C)C(=O)NCC(=O)N[C@@H](CCC(=O)O)C(=O)N1)C(=O)N[C@@H](CC(N)=O)C(=O)N[C@@H](CO)C(N)=O [Mag(i + 4)15(G13E), GIGKFLHSAKKFEKAXVGEXBNS] (H-GIGKFLHSAKKFEKA[S5]VGE[S5][Nle]NS-NH2; staple 16-20)	2.2
25	>50	>50	>50	CC[C@H](C)[C@H](NC(=O)CN)C(=O)NCC(=O)N[C@@H](CCCCN)C(=O)N[C@@H](Cc1ccccc1)C(=O)N[C@@H](CC(C)C)C(=O)N[C@@H](Cc1c[nH]cn1)C(=O)N[C@@H](CO)C(=O)N[C@@H](C)C(=O)N[C@@H](CCCCN)C(=O)N[C@@H](CCCCN)C(=O)N[C@@H](Cc1ccccc1)C(=O)NCC(=O)N[C@@H](CCCCN)C(=O)N[C@@H](C)C(=O)N[C@@]1(C)CCCC=CCCC[C@@](C)(C(=O)N[C@@H](CCC(=O)O)C(=O)N[C@@H](CC(N)=O)C(=O)N[C@@H](CO)C(N)=O)NC(=O)[C@H](CCC(=O)O)NC(=O)CNC(=O)[C@H](C(C)C)NC1=O [Mag(i + 4)15(B21E), GIGKFLHSAKKFGKAXVGEXENS] (H-GIGKFLHSAKKFGKA[S5]VGE[S5]ENS-NH2; staple 16-20)	0.8
50	>50	>50	>50	CCCC[C@H](NC(=O)[C@]1(C)CCCC=CCCC[C@](C)(NC(=O)[C@H](C)NC(=O)[C@H](CCCCN)NC(=O)CNC(=O)[C@H](CCC(=O)O)NC(=O)[C@H](CCCCN)NC(=O)[C@H](CCCCN)NC(=O)[C@H](C)NC(=O)[C@H](CO)NC(=O)[C@H](Cc2c[nH]cn2)NC(=O)[C@H](CC(C)C)NC(=O)[C@H](Cc2ccccc2)NC(=O)[C@H](CCCCN)NC(=O)CNC(=O)[C@@H](NC(=O)CN)[C@@H](C)CC)C(=O)N[C@@H](C(C)C)C(=O)NCC(=O)N[C@@H](CCC(=O)O)C(=O)N1)C(=O)N[C@@H](CC(N)=O)C(=O)N[C@@H](CO)C(N)=O [Mag(i + 4)15(F12E), GIGKFLHSAKKEGKAXVGEXBNS] (H-GIGKFLHSAKKEGKA[S5]VGE[S5][Nle]NS-NH2; staple 16-20)	0.6
